This passage reports IC50, GI50 and DC50 results from patent US20240376094A2, “SELECTIVE BCL-XL PROTAC COMPOUNDS AND METHODS OF USE” (Les Laboratoires Servier, priority 2021, published 2024).

Common to all, as to format: cell-based
For one assay, the system named is MOLT-4 cells. The experiment in a line: MOLT-4 cell viability, CTG assay. The conditions noted are these: Homo sapiens, MOLT-4, 48 h. In a few lines:
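Cells grown in RPMI 1640 with 10% FBS at 37° C, 5% CO2, then exposed to compounds for 48 h (11-point 5-fold dilution, triplicates). ATP measured by CellTiter-Glo luminescence; IC50 from four-parameter fit versus control, mean of ≥2 independent experiments.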

Assay [1] deals with EBC-1 lung cancer cell line. The experiment in a line: EBC-1 cell proliferation, CellTiter-Glo assay. The conditions noted are these: Homo sapiens, 120 h; Ebc-1 cell viability, CTG assay, 5 days of treatment; read-out: CTG 5 day Ebc1 GI50. Put shortly: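 EBC-1 cells seeded at 1000 per well overnight, then exposed to 10-point dilutions (0.508 nM–10 μM final) for 5 days at 37 °C, in triplicate. ATP luminescence by CellTiter-Glo, normalised to untreated wells; GI50 from four-parameter logistic fit, runs valid only with at least one doubling.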
Background: Cellular ATP, detected with luciferase, serves as a proxy for viable cell number.

The next assay concerns the target T1, HiBiT-tagged BCL-xL (Homo sapiens, UniProt Q07817).
T1 construct: expressed in transfected cells; host or cells: NCI-H1650 (ATCC No. CRL-5883), engineered HiBiT cell line
Briefly: NCI-H1650 BCL-xL protein levels, Nano-Glo HiBiT Lytic Detection. The settings on record: NCI-H1650 expressing HiBiT-tagged BCL-xL, overnight incubation, read-out: Bcl-xl HIBIT NCIH1650 DC50. In a few lines: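 NCI-H1650 cells expressing HiBiT-tagged BCL-xL (5000/well) were treated overnight at 37° C with 10 concentrations, final 0.508 nM-10 μM, in triplicate. Remaining BCL-xL measured by Nano-Glo HiBiT lytic luminescence, normalized to untreated cells; 50% values by four-parameter logistic fit.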
For orientation: HiBiT is a short tag that completes a luciferase, so light tracks the accessible tagged protein.

Another assay has as its target T2, Bcl-xL (Homo sapiens, UniProt Q07817).
T2 construct: Measured levels of Bcl-xL protein of HCT116 cells treated with the tested compounds; host or cells: HCT116
The experiment in a line: HCT116 Bcl-xL degradation, capillary-based immunoassay (WES). The settings on record: HCT116, 24 h, 9-point serial dilution. In a few lines:
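HCT116 cells treated 24 h with compound at 10/100 nM and/or 9-point dilution (quadruplicates), then lysed. Bcl-xL measured by capillary WES immunoassay, normalized to cofilin and expressed as % of untreated cells. DC50 from four-parameter curve fit.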

Structures are written as SMILES. pIC50: −log10 of the molar value.

T2 sequence (Q07817 whole entry): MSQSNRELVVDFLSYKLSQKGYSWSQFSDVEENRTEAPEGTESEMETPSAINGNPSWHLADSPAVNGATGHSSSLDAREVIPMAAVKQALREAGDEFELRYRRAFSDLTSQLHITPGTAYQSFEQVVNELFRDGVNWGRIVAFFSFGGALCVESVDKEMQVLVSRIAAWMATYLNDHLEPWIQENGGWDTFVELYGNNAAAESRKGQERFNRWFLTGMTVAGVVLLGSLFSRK
T1 sequence (Q07817 whole entry): as above

In the case of `Cc1ncsc1-c1ccc([C@H](C)NC(=O)[C@@H]2C[C@@H](O)CN2C(=O)[C@@H](NC(=O)CCCCCCCCNC(=O)c2nc(N3CCCc4c3nnc(Nc3nc5ccccc5s3)c4C)ccc2-c2cnn(C[C@]34C[C@]5(C)C[C@](C)(C3)C[C@@](OCCN3CCCC3)(C5)C4)c2C)C(C)(C)C)cc1` [Example 124, 6-[3-(1,3-benzothiazol-2-ylamino)-4-methyl-6,7-dihydro-5H-pyrido[2,3-c]pyridazin-8-yl]-3-[1-[[3,5-dimethyl-7-(2-pyrrolidin-1-ylethoxy)-1-adamantyl]methyl]-5-methyl-pyrazol-4-yl]-N-[9-[[(1S)-1-[(2S,4R)-4-hydroxy-2-[[(1S)-1-[4-(4-methylthiazol-5-yl)phenyl]ethyl]carbamoyl]pyrrolidine-1-carbonyl]-2,2-dimethyl-propyl]amino]-9-oxo-nonyl]pyridine-2-carboxamide], the pIC50 in the assay on MOLT-4 cells is 8.43. Besides, the GI50 in assay [1] was 25 nM. For the same molecule, the DC50 was found to be 1 nM at HiBiT-tagged BCL-xL and 1.01 nM at Bcl-xL.

`Cc1ncsc1-c1ccc([C@H](C)NC(=O)[C@@H]2C[C@@H](O)CN2C(=O)[C@@H](NC(=O)CCCCNC(=O)c2nc(N3CCCc4c3nnc(Nc3nc5ccccc5s3)c4C)ccc2-c2cnn(CC34CC5(C)CC(C)(C3)CC(OCCN3CCCC3)(C5)C4)c2C)C(C)(C)C)cc1` [Example 122, 6-[3-(1,3-benzothiazol-2-ylamino)-4-methyl-6,7-dihydro-5H-pyrido[2,3-c]pyridazin-8-yl]-3-[1-[[3,5-dimethyl-7-(2-pyrrolidin-1-ylethoxy)-1-adamantyl]methyl]-5-methyl-pyrazol-4-yl]-N-[5-[[(1S)-1-[(2S,4R)-4-hydroxy-2-[[(1S)-1-[4-(4-methylthiazol-5-yl)phenyl]ethyl]carbamoyl]pyrrolidine-1-carbonyl]-2,2-dimethyl-propyl]amino]-5-oxo-pentyl]pyridine-2-carboxamide] had a pIC50 in the assay on MOLT-4 cells of 8.34. Besides, in assay [1], the GI50 was found to be 46 nM. The DC50 is over 1670 nM on HiBiT-tagged BCL-xL and over 316 nM at Bcl-xL.

The molecule `Cc1ncsc1-c1ccc([C@H](C)NC(=O)[C@@H]2C[C@@H](O)CN2C(=O)[C@@H](NC(=O)CCCCCCCCCN2CCN(CC#Cc3ccc(OCCCc4sc(N5CCCc6c5nnc(Nc5nc7ccccc7s5)c6C)nc4C(=O)O)c(F)c3)CC2)C(C)(C)C)cc1` [Example 134, 2-[3-(1,3-benzothiazol-2-ylamino)-4-methyl-6,7-dihydro-5H-pyrido[2,3-c]pyridazin-8-yl]-5-[3-[2-fluoro-4-[3-[4-[10-[[(1S)-1-[(2S,4R)-4-hydroxy-2-[[(1S)-1-[4-(4-methylthiazol-5-yl)phenyl]ethyl]carbamoyl]pyrrolidine-1-carbonyl]-2,2-dimethyl-propyl]amino]-10-oxo-decyl]piperazin-1-yl]prop-1-ynyl]phenoxy]propyl]thiazole-4-carboxylic acid] showed a pIC50 in the assay on MOLT-4 cells of 8.14. For the same molecule, in assay [1], the GI50 came to 2 nM. Further, the figures for the DC50 on HiBiT-tagged BCL-xL and at Bcl-xL were 1 nM and 0.564 nM, respectively.

On to `Cc1ncsc1-c1ccc([C@H](C)NC(=O)[C@@H]2C[C@@H](O)CN2C(=O)[C@@H](NC(=O)C2CCN(C(=O)CCCCCCCCCN(C)CCOC34CC5(C)CC(C)(CC(Cn6ncc(-c7ccc(N8CCCc9c8nnc(Nc8nc%10ccccc%10s8)c9C)nc7C(=O)O)c6C)(C5)C3)C4)CC2)C(C)(C)C)cc1` [Example 84, 6-[3-(1,3-benzothiazol-2-ylamino)-4-methyl-6,7-dihydro-5H-pyrido[2,3-c]pyridazin-8-yl]-3-[1-[[3-[2-[[10-[4-[[(1S)-1-[(2S,4R)-4-hydroxy-2-[[(1S)-1-[4-(4-methylthiazol-5-yl)phenyl]ethyl]carbamoyl]pyrrolidine-1-carbonyl]-2,2-dimethyl-propyl]carbamoyl]-1-piperidyl]-10-oxo-decyl]-methyl-amino]ethoxy]-5,7-dimethyl-1-adamantyl]methyl]-5-methyl-pyrazol-4-yl]pyridine-2-carboxylic acid], for which the pIC50 in the assay with MOLT-4 cells was 7.74. In addition, in assay [1], the GI50 turned out to be 171 nM. The DC50 at HiBiT-tagged BCL-xL was over 1670 nM; on Bcl-xL, over 316 nM.

Take `Cc1ncsc1-c1ccc([C@H](C)NC(=O)[C@@H]2C[C@@H](O)CN2C(=O)[C@@H](NC(=O)CCCCCCNC(=O)c2nc(N3CCCc4c3nnc(Nc3nc5ccccc5s3)c4C)ccc2-c2cnn(CC34CC5(C)CC(C)(C3)CC(OCCN3CCCC3)(C5)C4)c2C)C(C)(C)C)cc1` [Example 120, 6-[3-(1,3-benzothiazol-2-ylamino)-4-methyl-6,7-dihydro-5H-pyrido[2,3-c]pyridazin-8-yl]-3-[1-[[3,5-dimethyl-7-(2-pyrrolidin-1-ylethoxy)-1-adamantyl]methyl]-5-methyl-pyrazol-4-yl]-N-[7-[[(1S)-1-[(2S,4R)-4-hydroxy-2-[[(1S)-1-[4-(4-methylthiazol-5-yl)phenyl]ethyl]carbamoyl]pyrrolidine-1-carbonyl]-2,2-dimethyl-propyl]amino]-7-oxo-heptyl]pyridine-2-carboxamide]: in the assay on MOLT-4 cells, the pIC50 is 8.14. Moreover, the GI50 in assay [1] was 119 nM. Further, the figures for the DC50 on HiBiT-tagged BCL-xL and at Bcl-xL were 1 nM and 1.68 nM, respectively.

Turning to `Cc1ncsc1-c1ccc([C@H](C)NC(=O)[C@@H]2C[C@@H](O)CN2C(=O)[C@@H](NC(=O)CCOCCCCCCN(C)CCOC23CC4(C)CC(C)(CC(Cn5ncc(-c6ccc(N7CCCc8c7nnc(Nc7nc9ccccc9s7)c8C)nc6C(=O)O)c5C)(C4)C2)C3)C(C)(C)C)cc1` [Example 108, 6-[3-(1,3-benzothiazol-2-ylamino)-4-methyl-6,7-dihydro-5H-pyrido[2,3-c]pyridazin-8-yl]-3-[1-[[3-[2-[6-[3-[[(1S)-1-[(2S,4R)-4-hydroxy-2-[[(1S)-1-[4-(4-methylthiazol-5-yl)phenyl]ethyl]carbamoyl]pyrrolidine-1-carbonyl]-2,2-dimethyl-propyl]amino]-3-oxo-propoxy]hexyl-methyl-amino]ethoxy]-5,7-dimethyl-1-adamantyl]methyl]-5-methyl-pyrazol-4-yl]pyridine-2-carboxylic acid], in the assay with MOLT-4 cells, the pIC50 is 8.01. For the same molecule, the GI50 in assay [1] worked out at 81 nM. For the same molecule, the results for the DC50 at HiBiT-tagged BCL-xL and on Bcl-xL were over 1670 nM and over 316 nM, respectively.

In the assay with MOLT-4 cells, `Cc1ncsc1-c1ccc([C@H](C)NC(=O)[C@@H]2C[C@@H](O)CN2C(=O)[C@@H](NC(=O)CCCCCCCNC(=O)c2nc(N3CCCc4c3nnc(Nc3nc5ccccc5s3)c4C)ccc2-c2cnn(CC34CC5(C)CC(C)(C3)CC(OCCN3CCCC3)(C5)C4)c2C)C(C)(C)C)cc1` [Example 129, 6-[3-(1,3-benzothiazol-2-ylamino)-4-methyl-6,7-dihydro-5H-pyrido[2,3-c]pyridazin-8-yl]-3-[1-[[3,5-dimethyl-7-(2-pyrrolidin-1-ylethoxy)-1-adamantyl]methyl]-5-methyl-pyrazol-4-yl]-N-[8-[[(1S)-1-[(2S,4R)-4-hydroxy-2-[[(1S)-1-[4-(4-methylthiazol-5-yl)phenyl]ethyl]carbamoyl]pyrrolidine-1-carbonyl]-2,2-dimethyl-propyl]amino]-8-oxo-octyl]pyridine-2-carboxamide] had a pIC50 of 8.28. For the same molecule, the GI50 in assay [1] is 3 nM. In addition, the DC50 on HiBiT-tagged BCL-xL was found to be 1 nM; at Bcl-xL it was 7.34 nM.

In the assay on MOLT-4 cells, `Cc1cc(N(CCCCN(C)C(=O)CCCCCCCCCCCC(=O)N[C@H](C(=O)N2C[C@H](O)C[C@H]2C(=O)N[C@@H](C)c2ccc(-c3scnc3C)cc2)C(C)(C)C)c2ccc(-c3cnn(C[C@]45C[C@]6(C)C[C@](C)(C4)C[C@@](OCCN(C)C)(C6)C5)c3C)c(C(=O)O)n2)nnc1Nc1nc2ccccc2s1` [Example 121, 6-[[6-(1,3-benzothiazol-2-ylamino)-5-methyl-pyridazin-3-yl]-[4-[[13-[[(1S)-1-[(2S,4R)-4-hydroxy-2-[[(1S)-1-[4-(4-methylthiazol-5-yl)phenyl]ethyl]carbamoyl]pyrrolidine-1-carbonyl]-2,2-dimethyl-propyl]amino]-13-oxo-tridecanoyl]-methyl-amino]butyl]amino]-3-[1-[[3-[2-(dimethylamino)ethoxy]-5,7-dimethyl-1-adamantyl]methyl]-5-methyl-pyrazol-4-yl]pyridine-2-carboxylic acid] gave a pIC50 of 8.00. The GI50 in assay [1] was 190 nM. Further, the figures for the DC50 at HiBiT-tagged BCL-xL and on Bcl-xL were 1 nM and 2.57 nM, respectively.

One may read the pIC50 as the IC50 on a negative log10 scale, so that one unit is a factor of ten. High values mean a low IC50, low ones a high IC50. In general, GI50 refers to the concentration at which growth is held to half of that of the control.
